Legend:
[1] = Tableting and stability of R&D formulations with other citric acid grades; assay type: physicochemical; settings: R&D formulations similar to Formula E1
germ = test: R&D germ kill testing of aqueous citric acid solutions; assay type: cell-based; settings: aqueous solutions containing 2.5% w/v
From the text: As discussed above, lemon juice contains 5-8% citric acid, amongst other potentially disinfecting ingredients like malic acid, ascorbic acid, and essential oils.

Staphyloccocus aureus = settings: 1 mg/mL solution in a 20% dimethyl sulfoxide water solution; cited from earlier work

O=C(O)CC(O)(CC(=O)O)C(=O)O [Citric acid anhydrous, citric acid anhydrous]
suitability for tablet formulation (hygroscopicity, tableting) [1]: too hygroscopic for use in a tablet formulation

O=C(O)CC(O)(CC(=O)O)C(=O)O [citric acid]
germ kill results (germ): did not produce consistent or satisfactory germ kill results | activity against Staphyloccocus aureus (Staphyloccocus aureus): inactive
